Test results: patent US7977474B2, “Uses of porphyrin compounds” (Destiny Pharma Ltd., priority 2004, dated 2011)
Read-outs that look alike come from different tables or passages of the source.

Columns and labels:
[1] = test system: normal human epidermal keratinocytes (NHEK); experiment: Toxicity against human skin cells, MTT-assay (Example D); assay type: cell-based; details: 0.01-10 μM, 5 min, 1 h and 4 h incubation, then 24 h in the dark
Experimental: (§1) NHEK were incubated with different concentrations of Compound 10 for 5 min, 1 h and 4 h (0 μM, 0.01 μM, 0.1 μM, 1.0 μM, 10 μM). Cells were then incubated for 24 h in the dark. Toxicity was tested by standard MTT-assay. Cell viability was normalised to one, which means, the values of control cells were normalised to one. Red dotted line: 5 min incubation; black dotted: 1 h incubation; blue dotted: 4 h incubation only; (n=3, mean±SD).
(§2) Test compounds were screened for toxicity against cultured human skin cells using normal human epidermal keratinoctes (NHEK) and normal human dermal fibroblasts (NHDF), purchased from CellSystems Biotechnologie GmbH, Germany.
(§3) The NHEK and NHDF cells were used between passages 3 and 10. The cells were seeded with 7.5 and/or 15×10^4 cells/well (microtitre plate) and were allowed to attach overnight in an incubator (37° C., 5% CO2). After incubation with different concentrations of the selected photosensitisers for various times, the cells were incubated for 24 hours in the dark.
(§4) Toxicity was tested by standard MTT-assay (Mossman et al., 1983 J. Immunological Methods 65: 55-63). MTT is an indicator of metabolically active cells. Dependent on enzyme activity in mitochondria a colour reaction can be visualised, which can be measured by ELISA reader (540 nm). […]

[2] = test system: Staphylococcus aureus (methicillin resistant); experiment: MIC (IsoSensitest broth) and MBC (subculture on blood agar), reference strains and clinical isolates (Example C); assay type: cell-based
Experimental: (§5) The Minimum Inhibitory Concentrations (MIC's) for Compound 10, over a range of reference strains and clinical isolates, were determined using IsoSensitest® broth and Minimum Bactericidal concentrations (MBC's) determined by subculture onto Columbia blood agar.
(§6) • 1. A 5 mg/ml stock solution of Compound 10 was made up in water • 2. A series of dilutions were undertaken to produce a range of concentrations between 32-0.001 mg/L • 3. The test microorganisms were grown up overnight in IsoSensitest® broth • 4. The cultures were then diluted with fresh broth to a final concentration of 10^4 organisms/ml and placed on a shaker for 90 minutes at 37° C. • 5. 90 μl of the broth culture containing the microorganisms were transferred to each of 12 wells in a row in a microtitre tray and repeated in a control tray—four organisms per tray. • 6. 90 μL of the appropriate Compound 10 dilution was then added to each well containing organisms to give a final dilution series from 16 mg/L to 0.0005 mg/L • 7. The solutions were mixed well and incubated in the dark for 24 hours • 8. […] The MBC values were recorded after overnight incubation of the subcultures. • 10. Controls of uninoculated broth and broth plus inoculum were undertaken for each organism in each tray Results

[3] = test system: Staphylococcus aureus BAA-44, a multi-drug resistant Methicillin Resistant Staphylococcus aureus (MRSA) strain; experiment: MIC and MBC of Compound 10 in the absence of light (Example B); assay type: cell-based
Text: The minimum inhibitory concentration (MIC) for an antimicrobial agent against a specific microorganism is defined as the minimum concentration of an antibacterial agent where no apparent visible growth of the organism is observed (FDA definition of Minimum Inhibitory Concentration). MIC's are typically determined using concentrations derived traditionally from serial twofold dilutions (National Committee for Clinical Laboratory Standards (NCCLS) Handbook M7-A5: “Methods for Dilution Antimicrobial Susceptibility Tests for Bacteria that Grow Aerobically; Approved Standard—5th Edition” Volume 20 Number 2. January 2000). The MIC for Compound 10 in the absence of light was investigated, using a protocol based on the MIC protocol produced by the NCCLS (National Committee for Clinical Laboratory Standards (NCCLS) Handbook M7-A5, supra).
Staphylococcus aureus BAA-44, a multi-drug resistant Methicillin Resistant Staphylococcus aureus (MRSA) strain obtained from the ATCC catalogue, was used in this study. The following concentrations of Compound 10 were investigated: 0.764; 0.382: 0.191; 0.0955; 0.0478; 0.0239, 0.0119, 0.00597, 0.00298, 0.00149, 0.00075 & 0.00037 μg/mL. Stock solutions were made up in distilled water and serial dilutions undertaken of this to produce the required concentrations immediately prior to use.
At least 3 to 5 well-isolated colonies of the same morphological type were selected from an agar plate culture and the growth transferred to a tube containing 100 mL of Isosensitest Broth and the broth culture is incubated at 37° C. overnight. The culture was then be diluted to a final density of 10^4 cells/mL with fresh Isosensitest Broth and incubated with shaking at 37° C. until the cells entered exponential growth.
0.09 mL of the adjusted inoculum was transferred into each of 24 wells of a polystyrene 96 well microtiter plate. A control well of bacteria alone in the presence of growth medium alone was included (as a positive control).
0.09 mL of the Compound 10 stock solutions from the dilution series were pipetted into the relevant well for the microtiter plates and incubated in the dark at 37° C. and the plates examined after 24 hours incubation to determine the turbidity in each well.

Enterococcus faecalis = experiment: MIC and MBC, reference strains and clinical isolates (Example C); assay type: cell-based
Experimental: as §5, §6

[4] = test system: Staphylococcus aureus (methicillin sensitive); experiment: as above; assay type: cell-based
Experimental: as §5, §6

Enterococcus faecium = experiment: as above; assay type: cell-based
Experimental: as §5, §6

[5] = test system: Staphylococcus epidermidis (methicillin resistant); experiment: as above; assay type: cell-based; details: for MIC: Staphylococcus epidermidis, dark 24 hours
Experimental: as §5, §6

[6] = test system: Staphylococcus epidermidis (methicillin sensitive); experiment: as above; assay type: cell-based; details: 37453, clinical isolate
Experimental: as §5, §6

[7] = test system: normal human dermal fibroblasts (NHDF); experiment: Toxicity against human skin cells, MTT-assay (Example D); assay type: cell-based; details: 0.01-10 μM, 5 min, 1 h and 4 h incubation, then 24 h in the dark
Experimental: as §1, with “NHDF” for “NHEK”, “Grey” for “Red”, “black line:” for “blue dotted:”, “incubation;” for “incubation only;”
as §2, §3, §4

[8] = Acute dermal toxicity test (OECD 402) (Example G); assay type: in vivo; details: 3.2 mM in a topical formulation
Experimental: Compound 10 was tested at 3.2 mM in a topical formulation in a standard acute dermal toxicity test to determine if any clinical or histological toxicity for the compound could be detected.
The acute toxicity protocol was based on OECD Guidelines for the testing of chemicals/Section 4—Health Effects Test Number 402: Acute Dermal Toxicity.

Escherichia coli = details: visible light after incubation; Valduga et al., 1999; cited from earlier work

Question: Which “innate toxicity (MTT cell viability)” value [1] does the source give for C[N+](C)(C)CCCOc1ccc(-c2c3nc(cc4ccc([nH]4)c(-c4ccc(OCCC[N+](C)(C)C)cc4)c4nc(cc5ccc2[nH]5)C=C4)C=C3)cc1 [Compound 10, 5,15-bis-[4-(3-Trimethylammonio-propyloxy)-phenyl]-porphyrin dichloride] here?
Answer: Its value is “does not demonstrate an innate toxicity”.

Question: What about the MIC ([2]; 24 h, EMRSA-16, clinical isolate, dark 24 hours) of the same molecule?
Answer: The MIC was 0.5 µg/mL.

Question: What about the MIC ([2]; ATCCBAA44, 24 h, ATCC BAA-44 Experiment 1, dark 24 hours) of the same molecule?
Answer: The MIC was 0.5 µg/mL.

Question: And the MIC ([2]; ATCCBAA44, 24 h, ATCC BAA-44 Experiment 2, dark 24 hours)?
Answer: Its MIC is 0.5 µg/mL.

Question: And the MIC ([2]; ATCCBAA44, 24 h, ATCC BAA-44 Experiment 3, dark 24 hours)?
Answer: The MIC was 2 µg/mL.

Question: What about the MIC ([2]; ATCCBAA44, 24 h, ATCC BAA-44 Experiment 4, dark 24 hours) of the same molecule?
Answer: Its MIC is 0.5 µg/mL.

Question: What about the MIC ([2]; ATCCBAA44, 24 h, ATCC BAA-44 Experiment 5, dark 24 hours) of the same molecule?
Answer: The MIC was 0.5 µg/mL.

Question: And the MIC ([2]; ATCCBAA44, 24 h, ATCC BAA-44 Experiment 6, dark 24 hours)?
Answer: Its MIC is 0.5 µg/mL.

Question: What about the MBC ([2]; ATCCBAA44, ATCC BAA-44 Experiment 1) of the same molecule?
Answer: Its MBC is 0.5 µg/mL.

Question: And the MBC ([2]; ATCCBAA44, ATCC BAA-44 Experiment 2)?
Answer: Its MBC is 1 µg/mL.

Question: And the MBC ([2]; ATCCBAA44, ATCC BAA-44 Experiment 3)?
Answer: The MBC was 2 µg/mL.

Question: And the MBC ([2]; ATCCBAA44, ATCC BAA-44 Experiment 4)?
Answer: The MBC was 1 µg/mL.

Question: And the MBC ([2]; ATCCBAA44, ATCC BAA-44 Experiment 5)?
Answer: The MBC was over 1 µg/mL.

Question: And the MBC ([2]; ATCCBAA44, ATCC BAA-44 Experiment 6)?
Answer: The MBC was 1 µg/mL.

Question: What about the MBC ([2]; EMRSA-15, clinical isolate) of the same molecule?
Answer: Its MBC is 1 µg/mL.

Question: And the MBC ([2]; EMRSA-16, clinical isolate)?
Answer: Its MBC is 0.5 µg/mL.

Question: And the MIC ([2]; NCTC11939, 24 h, NCTC 11939 (EMRSA-1), dark 24 hours)?
Answer: The MIC was 0.5 µg/mL.

Question: And the MBC ([2]; NCTC11939, NCTC 11939 (EMRSA-1))?
Answer: Its MBC is 0.5 µg/mL.

Question: And the MIC ([3]; Series 2, dark)?
Answer: Its MIC is 0.0955 µg/mL.

Question: And the MIC ([3]; Staphylococcus aureus, Series 1, dark, read-out: MIC)?
Answer: Its MIC is 0.0955 µg/mL.

Question: What about the MBC ([3]; Staphylococcus aureus, absence of light) of the same molecule?
Answer: Its MBC is 0.382 µg/mL.

Question: And the MIC ([3]; Staphylococcus aureus, absence of light, 24 hours incubation at 37° C., read-out: MIC)?
Answer: Its MIC is 0.0955 µg/mL.

Question: What about the MBC (Enterococcus faecalis; ATCC29212, ATCC 29212) of the same molecule?
Answer: The MBC was over 1 µg/mL.

Question: And the MBC (Enterococcus faecalis; E3, clinical isolate)?
Answer: Its MBC is 1 µg/mL.

Question: And the MIC (Enterococcus faecalis; E3, clinical isolate, dark 24 hours)?
Answer: Its MIC is 0.5 µg/mL.

Question: What about the MBC (Enterococcus faecalis; E4, clinical isolate) of the same molecule?
Answer: The MBC was 0.5 µg/mL.

Question: What about the MBC (Enterococcus faecalis; E10, clinical isolate) of the same molecule?
Answer: The MBC was 1 µg/mL.

Question: And the MBC (Enterococcus faecalis; E37, clinical isolate)?
Answer: Its MBC is 1 µg/mL.

Question: What about the MBC ([4]; ATCC25923, ATCC 25923) of the same molecule?
Answer: The MBC was 1 µg/mL.

Question: And the MIC ([4]; ATCC25923, ATCC 25923, dark 24 hours)?
Answer: The MIC was 0.5 µg/mL.

Question: What about the MBC ([4]; NCTC6571, NCTC 6571) of the same molecule?
Answer: Its MBC is 0.5 µg/mL.

Question: And the MIC ([4]; NCTC6571, NCTC 6571, dark 24 hours)?
Answer: Its MIC is 0.5 µg/mL.

Question: And the MBC (Enterococcus faecium; E1, clinical isolate)?
Answer: Its MBC is 1 µg/mL.

Question: And the MIC (Enterococcus faecium; E1, clinical isolate, dark 24 hours)?
Answer: The MIC was 0.5 µg/mL.

Question: And the MBC (Enterococcus faecium; E5, clinical isolate)?
Answer: Its MBC is 1 µg/mL.

Question: What about the MBC (Enterococcus faecium; E19, clinical isolate) of the same molecule?
Answer: Its MBC is 0.5 µg/mL.

Question: What about the MBC (Enterococcus faecium; E44, clinical isolate) of the same molecule?
Answer: Its MBC is 0.5 µg/mL.

Question: What about the MBC (Enterococcus faecium; NCTC12204, NCTC 12204) of the same molecule?
Answer: Its MBC is 1 µg/mL.

Question: And the MBC ([5]; Staphylococcus epidermidis, 33659, clinical isolate)?
Answer: Its MBC is 1 µg/mL.

Question: And the MBC ([5]; Staphylococcus epidermidis, 33759, clinical isolate)?
Answer: The MBC was 1 µg/mL.

Question: And the MBC ([5]; Staphylococcus epidermidis, 36572, clinical isolate)?
Answer: The MBC was 0.25 µg/mL.

Question: What about the MBC ([5]; Staphylococcus epidermidis, 38808, clinical isolate) of the same molecule?
Answer: The MBC was 0.5 µg/mL.

Question: What about the MIC ([5]; 24 h, 33659, clinical isolate) of the same molecule?
Answer: Its MIC is 0.5 µg/mL.

Question: What about the MIC ([5]; 24 h, 33759, clinical isolate) of the same molecule?
Answer: The MIC was 0.5 µg/mL.

Question: And the MIC ([5]; 24 h, 36572, clinical isolate)?
Answer: The MIC was 0.25 µg/mL.

Question: What about the MIC ([5]; 24 h, 38808, clinical isolate) of the same molecule?
Answer: The MIC was 0.5 µg/mL.

Question: And the MBC [6]?
Answer: The MBC was 0.5 µg/mL.

Question: And the MIC ([6]; dark 24 hours)?
Answer: Its MIC is 0.5 µg/mL.

Question: And the “innate toxicity (MTT cell viability)” value [7]?
Answer: Its value is “does not demonstrate an innate toxicity”.

Question: What about the “histological toxicology of major organs” value [8] of the same molecule?
Answer: Its value is “No histological toxicology of any major organ (including the skin) was observed”.

Question: And the acute toxic effect ([8]; dermal)?
Answer: The acute toxic effect was “does not result in any acute toxic effect”.

Question: And the clinical toxicology ([8]; clinical, macroscopic and microscopic observation)?
Answer: The clinical toxicology was “no clinical toxicology was observed”.

Question: With C[n+]1ccc(-c2c3nc(c(-c4cc[n+](C)cc4)c4ccc([nH]4)c(-c4cc[n+](C)cc4)c4nc(c(-c5cc[n+](C)cc5)c5ccc2[nH]5)C=C4)C=C3)cc1 [Compound T4MPyP, 5,10,15,20-tetrakis-(4-N-methylpyridyl)-porphine] as the molecule, how does the “inactivation of Escherichia coli” value (Escherichia coli) read?
Answer: The value was “efficiently inactivated”.
